Read-outs that look alike come from different tables or passages of the source. Marks after values point to notes of the source that are not given here.
Columns and labels:
TGEV = conditions: 45% (v/v) PG eluate, 20°C
PRV = conditions: eluate with 45% PG
BVDV = conditions: 45% (v/v) PG eluate, 20°C
[1] = TGEV Run 1, T = 0 min Load Sample, Standard titration
[2] = TGEV Run 1, T = 5 min, Standard titration
[3] = TGEV Run 1, T = 15 min, Standard titration
[4] = TGEV Run 1, T = 60 min, Standard titration
[5] = TGEV Run 1, T = 180 min, Standard titration
[6] = TGEV Run 1, T = 360 min, Standard titration
[7] = TGEV Run 2, T = 0 min Load Sample, Standard titration
[8] = TGEV Run 2, T = 5 min, Standard titration
[9] = TGEV Run 2, T = 15 min, Standard titration
[10] = TGEV Run 2, T = 60 min, Standard titration
[11] = TGEV Run 2, T = 180 min, 1LVP (96 wells)
[12] = TGEV Run 2, T = 360 min, 1 LVP (96 wells)
[13] = T = 6 h (+SD) (Standard titration)
[14] = BVDV Run 1, T = 0 min Load Sample, Standard titration
[15] = BVDV Run 1, T = 5 min, Standard titration
[16] = BVDV Run 1, T = 15 min, Standard titration
[17] = BVDV Run 1, T = 60 min, Standard titration
[18] = BVDV Run 1, T = 180 min, Standard titration
[19] = BVDV Run 1, T = 360 min, Standard titration
[20] = BVDV Run 2, T = 0 min Load Sample, Standard titration
[21] = BVDV Run 2, T = 5 min, Standard titration
[22] = BVDV Run 2, T = 15 min, Standard titration
[23] = BVDV Run 2, T = 60 min, Standard titration
[24] = BVDV Run 2, T = 180 min, Standard titration

For propane-1,2-diol [PG], the “Clearance Factor” value (TGEV; [1]) was 0.07 log, the “Log10TICD50 (total viral load)” value (TGEV; [1]) was 7.38 Log10TICD50 and the Titre (TGEV; [1]) was 5.12 log10TCID50/ml. The “Clearance Factor” value (TGEV; [2]) was 1.24 log, the “Log10TICD50 (total viral load)” value (TGEV; [2]) was 6.21 Log10TICD50 and the Titre (TGEV; [2]) was 3.95 log10TCID50/ml. The “Reduction Factor” value (TGEV; TGEV Run 1, T = 5 min vs T0, Standard titration) was 1.17 log, the “Clearance Factor” value (TGEV; [3]) was 2.41 log and the “Log10TICD50 (total viral load)” value (TGEV; [3]) was 5.04 Log10TICD50. For the same substance, the Titre (TGEV; [3]) was 2.78 log10TCID50/ml, the “Reduction Factor” value (TGEV; TGEV Run 1, T = 15 min vs T0, Standard titration) was 2.34 log and the “Clearance Factor” value (TGEV; [4]) was 3.87 log. For the same substance, the “Log10TICD50 (total viral load)” value (TGEV; [4]) was 3.58 Log10TICD50, the Titre (TGEV; [4]) was 1.32 log10TCID50/ml and the “Reduction Factor” value (TGEV; TGEV Run 1, T = 60 min vs T0, Standard titration) was 3.8 log. For the same substance, the “Clearance Factor” value (TGEV; [5]) was 4.39 log, the “Log10TICD50 (total viral load)” value (TGEV; [5]) was 3.06 Log10TICD50 and the Titre (TGEV; [5]) was 0.8 log10TCID50/ml. For the same substance, the “Reduction Factor” value (TGEV; TGEV Run 1, T = 180 min vs T0, Standard titration) was 4.32 log, the “Clearance Factor” value (TGEV; [6]) was >4.39 log and the “Log10TICD50 (total viral load)” value (TGEV; [6]) was <3.06 Log10TICD50. For the same substance, the Titre (TGEV; [6]) was <0.8 log10TCID50/ml, the “Reduction Factor” value (TGEV; TGEV Run 1, T = 360 min vs T0, Standard titration) was >4.32 log and the “Clearance Factor” value (TGEV; [7]) was 0.08 log. For the same substance, the “Log10TICD50 (total viral load)” value (TGEV; [7]) was 7.54 Log10TICD50, the Titre (TGEV; [7]) was 5.28 log10TCID50/ml and the “Clearance Factor” value (TGEV; [8]) was 1.08 log. For the same substance, the “Log10TICD50 (total viral load)” value (TGEV; [8]) was 6.54 Log10TICD50, the Titre (TGEV; [8]) was 4.28 log10TCID50/ml and the “Reduction Factor” value (TGEV; TGEV Run 2, T = 5 min vs T0, Standard titration) was 1 log. The “Clearance Factor” value (TGEV; [9]) was 2.16 log, the “Log10TICD50 (total viral load)” value (TGEV; [9]) was 5.46 Log10TICD50 and the Titre (TGEV; [9]) was 3.2 log10TCID50/ml. For the same substance, the “Reduction Factor” value (TGEV; TGEV Run 2, T = 15 min vs T0, Standard titration) was 2.08 log, the “Clearance Factor” value (TGEV; [10]) was 4.56 log and the “Log10TICD50 (total viral load)” value (TGEV; [10]) was 3.06 Log10TICD50. For the same substance, the Titre (TGEV; [10]) was 0.8 log10TCID50/ml, the “Reduction Factor” value (TGEV; TGEV Run 2, T = 60 min vs T0, Standard titration) was 4.48 log and the “Clearance Factor” value (TGEV; [11]) was 5.48 log. The “Log10TICD50 (total viral load)” value (TGEV; [11]) was 2.14 Log10TICD50, the Titre (TGEV; [11]) was −0.12 log10TCID50/ml and the “Reduction Factor” value (TGEV; TGEV Run 2, T = 180 min vs T0, 1LVP (96 wells)) was 5.4 log. The “Clearance Factor” value (TGEV; [12]) was >5.48 log, the “Log10TICD50 (total viral load)” value (TGEV; [12]) was <2.14 Log10TICD50 and the Titre (TGEV; [12]) was <−0.12 log10TCID50/ml. The “Reduction Factor” value (TGEV; TGEV Run 2, T = 360 min vs T0, 1 LVP (96 wells)) was >5.40 log, the Titer (PRV; Control T = 0 h (w/o SD)) was 2.17 ± 0.30 TCID50/ml and the “Viral Load” value (PRV; Control T = 0 h (w/o SD)) was 4.47 ± 0.30 log10. For the same substance, the Titer (PRV; Control T = 6 h (w/o SD)) was ≤0.78* TCID50/ml, the “Viral Load” value (PRV; Control T = 6 h (w/o SD)) was ≤3.08 log10 and the Titer (PRV; T = 0 h (+SD)) was ≤1.48* TCID50/ml. The “Viral Load” value (PRV; T = 0 h (+SD)) was ≤3.78 log10, the Titer (PRV; T = 1 h (+SD)) was ≤1.48* TCID50/ml and the “Viral Load” value (PRV; T = 1 h (+SD)) was ≤3.78 log10. The Titer (PRV; T = 3 h (+SD)) was ≤1.48* TCID50/ml, the “Viral Load” value (PRV; T = 3 h (+SD)) was ≤3.78 log10 and the Titer (PRV; [13]) was ≤1.48* TCID50/ml. The “Viral Load” value (PRV; [13]) was ≤3.78 log10, the “Clearance Factor” value (BVDV; [14]) was 0.43 log and the “Log10TICD50 (total viral load)” value (BVDV; [14]) was 5.85 Log10TICD50. The Titre (BVDV; [14]) was 3.12 log10TCID50/ml, the “Clearance Factor” value (BVDV; [15]) was 1.65 log and the “Log10TICD50 (total viral load)” value (BVDV; [15]) was 4.63 Log10TICD50. The Titre (BVDV; [15]) was 1.9 log10TCID50/ml, the “Reduction Factor” value (BVDV; BVDV Run 1, T = 5 min vs T0, Standard titration) was 1.22 log and the “Clearance Factor” value (BVDV; [16]) was 1.3 log. For the same substance, the “Log10TICD50 (total viral load)” value (BVDV; [16]) was 4.98 Log10TICD50, the Titre (BVDV; [16]) was 2.25 log10TCID50/ml and the “Reduction Factor” value (BVDV; BVDV Run 1, T = 15 min vs T0, Standard titration) was 0.87 log. The “Clearance Factor” value (BVDV; [17]) was 1.3 log, the “Log10TICD50 (total viral load)” value (BVDV; [17]) was 4.98 Log10TICD50 and the Titre (BVDV; [17]) was 2.25 log10TCID50/ml. The “Reduction Factor” value (BVDV; BVDV Run 1, T = 60 min vs T0, Standard titration) was 0.87 log, the “Clearance Factor” value (BVDV; [18]) was 1.3 log and the “Log10TICD50 (total viral load)” value (BVDV; [18]) was 4.98 Log10TICD50. For the same substance, the Titre (BVDV; [18]) was 2.25 log10TCID50/ml, the “Reduction Factor” value (BVDV; BVDV Run 1, T = 180 min vs T0, Standard titration) was 0.87 log and the “Clearance Factor” value (BVDV; [19]) was 2.75 log. For the same substance, the “Log10TICD50 (total viral load)” value (BVDV; [19]) was 3.53 Log10TICD50, the Titre (BVDV; [19]) was 0.8 log10TCID50/ml and the “Reduction Factor” value (BVDV; BVDV Run 1, T = 360 min vs T0, Standard titration) was >4.32 log. For the same substance, the “Clearance Factor” value (BVDV; [20]) was 0.44 log, the “Log10TICD50 (total viral load)” value (BVDV; [20]) was 5.76 Log10TICD50 and the Titre (BVDV; [20]) was 3.03 log10TCID50/ml. For the same substance, the “Clearance Factor” value (BVDV; [21]) was 1.88 log, the “Log10TICD50 (total viral load)” value (BVDV; [21]) was 4.32 Log10TICD50 and the Titre (BVDV; [21]) was 1.59 log10TCID50/ml. For the same substance, the “Reduction Factor” value (BVDV; BVDV Run 2, T = 5 min vs T0, Standard titration) was 1.44 log, the “Clearance Factor” value (BVDV; [22]) was 2.15 log and the “Log10TICD50 (total viral load)” value (BVDV; [22]) was 4.05 Log10TICD50. The Titre (BVDV; [22]) was 1.32 log10TCID50/ml, the “Reduction Factor” value (BVDV; BVDV Run 2, T = 15 min vs T0, Standard titration) was 1.71 log and the “Clearance Factor” value (BVDV; [23]) was 1.88 log. The “Log10TICD50 (total viral load)” value (BVDV; [23]) was 4.32 Log10TICD50, the Titre (BVDV; [23]) was 1.59 log10TCID50/ml and the “Reduction Factor” value (BVDV; BVDV Run 2, T = 60 min vs T0, Standard titration) was 1.44 log. The “Clearance Factor” value (BVDV; [24]) was >2.67 log, the “Log10TICD50 (total viral load)” value (BVDV; [24]) was <3.53 Log10TICD50 and the Titre (BVDV; [24]) was <0.8 log10TCID50/ml. The “Reduction Factor” value (BVDV; BVDV Run 2, T = 180 min vs T0, Standard titration) was >2.23 log, the “Clearance Factor” value (BVDV; BVDV Run 2, T = 360 min, 1 LVP) was >3.59 log and the “Log10TICD50 (total viral load)” value (BVDV; BVDV Run 2, T = 360 min, 1 LVP) was <2.61 Log10TICD50. The Titre (BVDV; BVDV Run 2, T = 360 min, 1 LVP) was <−0.12 log10TCID50/ml and the “Reduction Factor” value (BVDV; BVDV Run 2, T = 360 min vs T0, 1 LVP) was >3.15 log.
